Patent US20200369728A1, “PEPTIDOMIMETIC MACROCYCLES AND USES THEREOF” (Aileron Therapeutics, Inc., priority 2015, published 2020)
Bridge positions count the residues as written; N and C are the ends. Square brackets hold non-standard residues; d marks the D form. Peptide text beside a SMILES is read from it. R8 = C=CCCCCCC[C@@](C)(N)C(=O)O; hLeu = CC(C)CC[C@H](N)C(=O)O; S5 = C=CCCC[C@](C)(N)C(=O)O

Columns and labels:
Caspase 3 = Caspase 3 detection assay in SJSA1 cells; type: cell-based; conditions: SJSA1, 48 h, Caspase 3 activation over DMSO-treated cells
SJSA-1 cells = experiment: Cell lysis by peptidomimetic macrocycles (LDH release); type: cell-based; conditions: SJSA-1, 1 h
Summary of the method: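 Membrane lysis measured as supernatant LDH after a 1 h, 37 °C exposure of SJSA-1 cells, held in RPMI with 1% FBS, to macrocycles at final 6.25-50 μM with 0.5% DMSO. Lytic references were 10 μM melittin and 1% Triton X-100; DMSO alone served as non-lytic control.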

RKO = experiment: Cell viability assay (MTT), RKO; conditions: read-out: RKO EC50 (72 h)

In the case of `CC(=O)N[C@@H](CCC(=O)O)C(=O)N[C@H](C(=O)N[C@@H](Cc1ccccc1)C(=O)N[C@]1(C)CCCCCCC=CCCC[C@@](C)(C(=O)N[C@@H](C)C(=O)N[C@@H](C)C(=O)N[C@@H](C)C(=O)N[C@@H](C)C(=O)N[C@@H](C)C(=O)N[C@H](C)C(N)=O)NC(=O)[C@H](CC(C)C)NC(=O)[C@H](CCC(N)=O)NC(=O)[C@H](C)NC(=O)[C@H](Cc2c[nH]c3ccccc23)NC(=O)[C@H](Cc2ccc(O)cc2)NC(=O)[C@H](CCC(=O)O)NC1=O)[C@@H](C)O` (single isomer, unassigned) [compound 341], the “caspase 0.3 μM” value (Caspase 3) is reported as 3, the “caspase 1 μM” value (Caspase 3) is reported as 8 and the “caspase 3 μM” value (Caspase 3) is reported as 11. The “caspase 10 μM” value (Caspase 3) was 14, the “caspase 30 μM” value (Caspase 3) was 21 and the “6.25 μM % Lysed cells (1 h LDH)” value (SJSA-1 cells) was 0%. For the same compound, the “25 μM % Lysed cells (1 h LDH)” value (SJSA-1 cells) was 0%, the “50 μM % Lysed cells (1 h LDH)” value (SJSA-1 cells) was 0% and the EC50 (RKO) was 15 to 30 µM.
For `CC(=O)N[C@@H](C)C(=O)N[C@@H](CC(C)C)C(=O)N[C@H](C(=O)N[C@@H](Cc1ccccc1)C(=O)N[C@]1(C)CCCCCCC=CCCC[C@@](C)(C(=O)N[C@@H](CO)C(=O)N[C@@H](C)C(=O)N[C@@H](C)C(=O)N[C@H](C)C(N)=O)NC(=O)[C@H](CC2CCC2)NC(=O)[C@H](CCC(N)=O)NC(=O)[C@H](C)NC(=O)[C@H](Cc2c[nH]c3ccccc23)NC(=O)[C@H](Cc2ccc(O)cc2)NC(=O)[C@H](CCC(=O)O)NC1=O)[C@@H](C)O` (single isomer, unassigned) [compound 355], the “caspase 0.3 μM” value (Caspase 3) was 1, the “caspase 1 μM” value (Caspase 3) was 4 and the “caspase 3 μM” value (Caspase 3) was 11. The “caspase 10 μM” value (Caspase 3) was 13, the “caspase 30 μM” value (Caspase 3) was 30 and the “6.25 μM % Lysed cells (1 h LDH)” value (SJSA-1 cells) was 0%. The “25 μM % Lysed cells (1 h LDH)” value (SJSA-1 cells) was 0%, the “50 μM % Lysed cells (1 h LDH)” value (SJSA-1 cells) was 0% and the EC50 (RKO) was 15 to 30 µM.
In the case of `CC(=O)N[C@@H](C)C(=O)N[C@@H](C)C(=O)N[C@@H](CC(C)C)C(=O)N[C@H](C(=O)N[C@@H](Cc1ccccc1)C(=O)N[C@]1(C)CCCCCCC=CCCC[C@@](C)(C(=O)N[C@@H](CO)C(=O)N[C@@H](C)C(=O)N[C@@H](C)C(=O)N[C@@H](C)C(=O)N[C@H](C)C(N)=O)NC(=O)[C@H](CC2CCC2)NC(=O)[C@H](CCC(N)=O)NC(=O)[C@H](C)NC(=O)[C@H](Cc2c[nH]c3ccccc23)NC(=O)[C@H](Cc2ccc(O)cc2)NC(=O)[C@H](CCC(=O)O)NC1=O)[C@@H](C)O` (single isomer, unassigned) [compound 359], the “caspase 0.3 μM” value (Caspase 3) is reported as 3, the “caspase 1 μM” value (Caspase 3) is reported as 9 and the “caspase 3 μM” value (Caspase 3) is reported as 11. The “caspase 10 μM” value (Caspase 3) was 13, the “caspase 30 μM” value (Caspase 3) was 23 and the “6.25 μM % Lysed cells (1 h LDH)” value (SJSA-1 cells) was 0%. The “25 μM % Lysed cells (1 h LDH)” value (SJSA-1 cells) was 0%, the “50 μM % Lysed cells (1 h LDH)” value (SJSA-1 cells) was 0% and the EC50 (RKO) was 15 to 30 µM.
In the case of `CC(=O)N[C@@H](CC(C)C)C(=O)N[C@H](C(=O)N[C@@H](Cc1ccccc1)C(=O)N[C@]1(C)CCCCCCC=CCCC[C@@](C)(C(=O)N[C@@H](C)C(=O)N[C@@H](C)C(=O)N[C@@H](C)C(=O)N[C@@H](C)C(=O)N[C@@H](C)C(=O)N[C@H](C)C(N)=O)NC(=O)[C@H](CC(C)C)NC(=O)[C@H](CCC(N)=O)NC(=O)[C@H](C)NC(=O)[C@H](Cc2c[nH]c3cc(Cl)ccc23)NC(=O)[C@H](Cc2ccc(O)cc2)NC(=O)[C@H](C)NC1=O)[C@@H](C)O` (single isomer, unassigned) [compound 338], the “caspase 0.3 μM” value (Caspase 3) is reported as 1, the “caspase 1 μM” value (Caspase 3) is reported as 5 and the “caspase 3 μM” value (Caspase 3) is reported as 23. For the same compound, the “caspase 10 μM” value (Caspase 3) was 20, the “caspase 30 μM” value (Caspase 3) was 29 and the “6.25 μM % Lysed cells (1 h LDH)” value (SJSA-1 cells) was 0%. The “25 μM % Lysed cells (1 h LDH)” value (SJSA-1 cells) was 0%, the “50 μM % Lysed cells (1 h LDH)” value (SJSA-1 cells) was 1% and the EC50 (RKO) was < 5 µM.
With `CC(=O)N[C@@H](CC(C)C)C(=O)N[C@H](C(=O)N[C@@H](Cc1ccccc1)C(=O)N[C@]1(C)CCCCCCC=CCCC[C@@](C)(C(=O)N[C@@H](CO)C(=O)N[C@H](C(=O)N[C@@H](CO)C(N)=O)C(C)C)NC(=O)[C@H](CC(C)C)NC(=O)[C@H](CCC(N)=O)NC(=O)[C@H](C)NC(=O)[C@H](Cc2c[nH]c3ccccc23)NC(=O)[C@H](Cc2ccc(O)cc2)NC(=O)[C@H](C)NC1=O)[C@@H](C)O` [compound 121] (Ac-LTF[R8]AYWAQL[S5]SVS-NH2; staple 4-11) the “caspase 0.3 μM” value (Caspase 3) was 1, the “caspase 3 μM” value (Caspase 3) was 5 and the “caspase 10 μM” value (Caspase 3) was 19. For the same compound, the “caspase 30 μM” value (Caspase 3) was 30, the “6.25 μM % Lysed cells (1 h LDH)” value (SJSA-1 cells) was 1% and the “25 μM % Lysed cells (1 h LDH)” value (SJSA-1 cells) was 1%. The “50 μM % Lysed cells (1 h LDH)” value (SJSA-1 cells) was 7% and the EC50 (RKO) was < 5 µM.
With `CC(=O)N[C@@H](CC(C)C)C(=O)N[C@H](C(=O)N[C@@H](Cc1ccccc1)C(=O)N[C@]1(C)CCCCCC/C=C/CCC[C@@](C)(C(=O)N[C@@H](CO)C(=O)N[C@@H](C)C(=O)N[C@@H](C)C(N)=O)NC(=O)[C@H](CCC(C)C)NC(=O)[C@H](CCC(N)=O)NC(=O)[C@H](C)NC(=O)[C@H](Cc2c[nH]c3ccccc23)NC(=O)[C@H](Cc2ccc(O)cc2)NC(=O)[C@H](C)NC1=O)[C@@H](C)O` [compound 115] (Ac-LTF[R8]AYWAQ[hLeu][S5]SAA-NH2; staple (E) 4-11) the “caspase 0.3 μM” value (Caspase 3) was 1, the “caspase 3 μM” value (Caspase 3) was 10 and the “caspase 10 μM” value (Caspase 3) was 26. The “caspase 30 μM” value (Caspase 3) was 32, the “6.25 μM % Lysed cells (1 h LDH)” value (SJSA-1 cells) was 0% and the “25 μM % Lysed cells (1 h LDH)” value (SJSA-1 cells) was −1%. For the same compound, the “50 μM % Lysed cells (1 h LDH)” value (SJSA-1 cells) was 6% and the EC50 (RKO) was 5 to 15 µM.
With `CC(=O)N[C@@H](CC(C)C)C(=O)N[C@H](C(=O)N[C@@H](Cc1ccccc1)C(=O)N[C@]1(C)CCCCCCC=CCCC[C@@](C)(C(=O)N[C@@H](CO)C(=O)N[C@@H](C)C(=O)N[C@@H](C)C(N)=O)NC(=O)[C@H](CC2CCCCC2)NC(=O)[C@H](CCC(N)=O)NC(=O)[C@H](C)NC(=O)[C@H](Cc2c[nH]c3ccccc23)NC(=O)[C@H](Cc2ccc(O)cc2)NC(=O)[C@H](CCC(=O)O)NC1=O)[C@@H](C)O` (single isomer, unassigned) [compound 148] the “caspase 0.3 μM” value (Caspase 3) was 1, the “caspase 3 μM” value (Caspase 3) was 11 and the “caspase 10 μM” value (Caspase 3) was 23. The “caspase 30 μM” value (Caspase 3) was 31, the “6.25 μM % Lysed cells (1 h LDH)” value (SJSA-1 cells) was 0% and the “25 μM % Lysed cells (1 h LDH)” value (SJSA-1 cells) was −1%. The “50 μM % Lysed cells (1 h LDH)” value (SJSA-1 cells) was 0% and the EC50 (RKO) was 15 to 30 µM.
In the case of `CC(=O)N[C@@H](CC(C)C)C(=O)N[C@H](C(=O)N[C@@H](Cc1ccccc1)C(=O)N[C@]1(C)CCCCCCC=CCCC[C@@](C)(C(=O)N[C@@H](CO)C(=O)N[C@@H](C)C(=O)N[C@@H](C)C(=O)N[C@H](C)C(N)=O)NC(=O)[C@H](CC2CCC2)NC(=O)[C@H](CCC(N)=O)NC(=O)[C@H](C)NC(=O)[C@H](Cc2c[nH]c3ccccc23)NC(=O)[C@H](Cc2ccc(O)cc2)NC(=O)[C@H](CCC(=O)O)NC1=O)[C@@H](C)O` (single isomer, unassigned) [compound 353], the “caspase 0.3 μM” value (Caspase 3) is reported as 1, the “caspase 1 μM” value (Caspase 3) is reported as 2 and the “caspase 3 μM” value (Caspase 3) is reported as 5. For the same compound, the “caspase 10 μM” value (Caspase 3) was 7, the “caspase 30 μM” value (Caspase 3) was 30 and the “6.25 μM % Lysed cells (1 h LDH)” value (SJSA-1 cells) was 0%. The “25 μM % Lysed cells (1 h LDH)” value (SJSA-1 cells) was 0%, the “50 μM % Lysed cells (1 h LDH)” value (SJSA-1 cells) was 0% and the EC50 (RKO) was 15 to 30 µM.
`CC(=O)N[C@@H](CC(C)C)C(=O)N[C@H](C(=O)N[C@@H](Cc1ccccc1)C(=O)N[C@]1(C)CCCCCC/C=C/CCC[C@@](C)(C(=O)N[C@@H](C)C(=O)N[C@@H](C)C(=O)N[C@@H](C)C(=O)N[C@@H](C)C(=O)N[C@@H](C)C(=O)N[C@H](C)C(N)=O)NC(=O)[C@H](CC2CCC2)NC(=O)[C@H](CCC(N)=O)NC(=O)[C@H](C)NC(=O)[C@H](Cc2c[nH]c3ccccc23)NC(=O)[C@H](Cc2ccc(C(=O)O)cc2)NC(=O)[C@H](CCC(=O)O)NC1=O)[C@@H](C)O` [compound 349] was tested, and the “caspase 0.3 μM” value (Caspase 3) was 1, the “caspase 1 μM” value (Caspase 3) was 8 and the “caspase 3 μM” value (Caspase 3) was 11. For the same compound, the “caspase 10 μM” value (Caspase 3) was 16, the “caspase 30 μM” value (Caspase 3) was 24 and the “6.25 μM % Lysed cells (1 h LDH)” value (SJSA-1 cells) was 0%. For the same compound, the “25 μM % Lysed cells (1 h LDH)” value (SJSA-1 cells) was 0%, the “50 μM % Lysed cells (1 h LDH)” value (SJSA-1 cells) was 0% and the EC50 (RKO) was 5 to 15 µM.
